Laboratory results: paper PMC2120067 (The Journal of Cell Biology, 1994)

Tests used:
[1] = test system: chicken chorioallantoic membrane (CAM); test: CAM angiogenesis assay; type: in vivo; settings: methylcellulose disk on chick CAM
[2] = Spectroscopic analysis of copper binding; settings: saturable; not displaced with 100-fold excesses of Na, K, Ca, or Mg ions; not shown
[3] = Magnesium-binding control by electrospray mass spectrometry; settings: 20 µM KGHK + 50 µM MgSO4 in 20 mM NH4HCO3 (pH 7.5), electrospray MS
[4] = Copper-binding study by electrospray mass spectrometry; settings: 10 µM KGHK and KGRK mixed with 8 µM Cu2+, electrospray MS
[5] = test system: angiogenic bovine aortic endothelial (BAE) cells; test: Quantitation of endothelial cord formation; type: cell-based
[6] = test system: new vessel growth in vivo; settings: ref Raju et al., 1982; cited from earlier work

Substance: KGHK [N-lysyl-L-glycyl-L-histidyl-L-lysine- OH]
- Lowest application eliciting angiogenic activity in the CAM [1]: 50 ng/disk
- Change of absorbance on addition of copper ions [2]: increase in absorbance at 580 nm
- Formation of 1:1 complex with magnesium [3]: did not form
- Direct competition for limiting copper ions [4]: all copper ions were sequestered in a KGHK:Cu complex

Substance: bovine serum albumin: control protein [reference compound]
- Stimulation of endothelial cord formation ([5]; bovine serum albumin, concentration not given): no stimulatory effect

Substance: N-gly- cyl-L-histidyl-L-lysine-OH [GHK]
- Stimulation of new vessel growth in vivo [6]: little effect
- Stimulation of endothelial cord formation, peptide pretreated with CuSO4 ([5]; pretreatment of peptide with CuSO4, not shown): significant angiogenic stimulation
